Reference: patent publication US5817617A, “Selectin and pertussis toxin derived peptides and uses thereof” (The Rockefeller University, priority 1994, dated 1998)
Where a SMILES comes first, the peptide text is derived from it.

Legend:
Assay type in all cases: cell-based
[1] = system: ELAM; experiment: Assay 1: inhibition of adherence of neutrophils to ELAM-coated surfaces (FIG. 4); conditions: for % of inhibition ASSAY 1: peptide at 1 mg/ml, neutrophils on ELAM-coated surfaces
Method: In the study, the proteins PT, B-oligomer, S2, S3, S2/S3 and S3/S2 were taken up in an isotonic buffered tissue culture medium to a concentration of 50 ug/ml and the ability of each of them to inhibit adhesion of neutrophils to ELAM or GMP140 was determined as described by Wright et al J. Exp. Med. 158:2016 (1983). The buffer was employed as the control and each protein studied was compared to the control for the ability to decrease adhesion capacity.
Assay 1 is inhibition of adherence of enutrophils to ELAM-coated surfaces as described in connection with FIG. 4. Values ±20% inhibition are significant.

[2] = system: CR3; experiment: Assay 3: upregulation of integrins (CR3) on the surface of a neutrophil, detected with EC3bi (FIG. 5); conditions: for # of cells ASSAY 3: peptide at 1 mg/ml, upregulation of integrins on neutrophil; for ability to upregulate integrins on leukocytes, assay 3 (in words): peptides of Table 2
Method: EC3bi is an erythrocyte coated with the complement component C3bi and is used to detect the presence of CR3 on the surface of a leukocyte according to the procedure of Wright et al (supra).
The test was conducted with separate proteins in tissue culture as in the experiment described in connection with the previous figure.
Assay 3 measures upregulation of integrins on the surface of a neutorphil as described in FIG. 5. Values ±50% are significant.

[3] = system: endothelial cells; experiment: Assay 2: inhibition of adherence of a neutrophil to a monolayer of endothelial cells; conditions: peptide at 1 mg/ml; for % of inhibition ASSAY 2: neutrophil on monolayer of endothelial cells; for activity in Assays 1 or 2 (in words): adherence of leukocytes to selectins or endothelial cells bearing selectins
From the text: Assay 2 is inhibition of adherence of a neutrophil to a monolayer of endothelial cells as described by Lo et al J. Exp. Med. 173:1493-1500 (1991). Values ±50% inhibition are significant.

Row | Compound | % of inhibition ASSAY 1 [1] | # of cells ASSAY 3 [2] | % of inhibition ASSAY 2 [3] | ability to upregulate integrins on leukocytes, assay 3 (in words) [2] | activity in Assays 1 or 2 (in words) [3] | inhibition of neutrophil/leukocyte adherence to ELAM ([1]; protein at 50 ug/ml, compared to buffer control)
1 | CC[C@H](C)[C@H](NC(=O)[C@H](CCC(N)=O)NC(=O)[C@H](CCCNC(=N)N)NC(=O)[C@H](CC(C)C)NC(=O)[C@H](Cc1ccc(O)cc1)NC(=O)[C@@H](NC(=O)[C@H](CCC(N)=O)NC(=O)[C@H](CC(C)C)NC(=O)[C@H](CCC(=O)O)NC(=O)[C@H](C)N)[C@@H](C)O)C(=O)N[C@H](C(=O)N1CCC[C@H]1C(=O)NCC(=O)N[C@@H](Cc1c[nH]c2ccccc12)C(=O)N[C@@H](CO)C(=O)O)[C@@H](C)O [SEQ ID NO:32, AELQTYLRQITPGWS] (H-AELQTYLRQITPGWS-OH) | 0-18% | 122 # of cells |  |  |  | 
2 | CC(C)C[C@H](NC(=O)[C@H](CC(=O)O)NC(=O)CN)C(=O)N[C@@H](CCC(N)=O)C(=O)N[C@@H](CCC(=O)O)C(=O)N[C@@H](Cc1ccc(O)cc1)C(=O)N[C@@H](CC(C)C)C(=O)N[C@@H](CCCNC(=N)N)C(=O)N[C@@H](Cc1c[nH]cn1)C(=O)N[C@H](C(=O)N[C@H](C(=O)N[C@@H](CCCNC(=N)N)C(=O)NCC(=O)N[C@@H](Cc1c[nH]c2ccccc12)C(=O)N[C@@H](CO)C(=O)O)[C@@H](C)O)C(C)C [SEQ ID NO:35, GDLQEYLRHVTRGWS] | 0-14% | 104 # of cells |  |  |  | 
3 | CC[C@H](C)[C@H](NC(=O)[C@H](CO)NC(=O)[C@H](CC(N)=O)NC(=O)[C@H](CC(C)C)NC(=O)[C@H](Cc1ccc(O)cc1)NC(=O)[C@H](CCC(=O)O)NC(=O)[C@@H](NC(=O)[C@H](CCC(=O)O)NC(=O)[C@H](CCC(=O)O)NC(=O)[C@@H](N)CCCCN)[C@@H](C)CC)C(=O)N[C@@H](CC(C)C)C(=O)N[C@@H](CO)C(=O)N[C@@H](Cc1ccc(O)cc1)C(=O)N[C@@H](CO)C(=O)O [SEQ ID NO:29, KEEIEYLNSILSYS] (H-KEEIEYLNSILSYS-OH) | 0-2% | 73 # of cells |  |  |  | 
4 | CC[C@H](C)[C@H](NC(=O)[C@H](C)NC(=O)[C@@H](NC(=O)[C@H](CC(C)C)NC(=O)[C@@H](N)[C@@H](C)O)C(C)C)C(=O)N[C@@H](CCC(N)=O)C(=O)N[C@@H](CC(N)=O)C(=O)N[C@@H](CCCCN)C(=O)N[C@@H](CCC(=O)O)C(=O)N[C@@H](CCC(=O)O)C(=O)N[C@H](C(=O)N[C@@H](CCC(=O)O)C(=O)N[C@@H](Cc1ccc(O)cc1)C(=O)N[C@@H](CC(C)C)C(=O)O)[C@@H](C)CC [SEQ ID NO:30, TLVAIQNKEEIEYL] (H-TLVAIQNKEEIEYL-OH) |  | 243 # of cells | 80% | ability to upregulate integrins on leukocytes |  | 
5 | CC[C@H](C)[C@H](NC(=O)[C@H](C)NC(=O)[C@@H](N)C(C)C)C(=O)N[C@@H](CCC(N)=O)C(=O)N[C@@H](CC(N)=O)C(=O)N[C@@H](CCCCN)C(=O)N[C@@H](CC(N)=O)C(=O)N[C@@H](CCC(=O)O)C(=O)N[C@H](C(=O)N[C@@H](CC(=O)O)C(=O)N[C@@H](Cc1ccc(O)cc1)C(=O)N[C@@H](CC(C)C)C(=O)N[C@@H](CC(N)=O)C(=O)N[C@@H](CCCCN)C(=O)N[C@H](C(=O)N[C@@H](CC(C)C)C(=O)N1CCC[C@H]1C(=O)N[C@@H](Cc1ccc(O)cc1)C(=O)N[C@@H](Cc1ccc(O)cc1)C(=O)N[C@@H](CO)C(=O)O)C(C)C)[C@@H](C)CC [SEQ ID NO:33] (H-VAIQNKNEIDYLNKVLPYYS-OH) | 3-14% | 113 # of cells |  | ability to upregulate integrins on leukocytes |  | 
6 | CC[C@H](C)[C@H](NC(=O)[C@H](C)NC(=O)[C@@H](N)C(C)C)C(=O)N[C@@H](CCC(N)=O)C(=O)N[C@@H](CC(N)=O)C(=O)N[C@@H](CCCCN)C(=O)N[C@@H](CCC(=O)O)C(=O)N[C@@H](CCC(=O)O)C(=O)N[C@H](C(=O)N[C@@H](CCC(=O)O)C(=O)N[C@@H](Cc1ccc(O)cc1)C(=O)N[C@@H](CC(C)C)C(=O)N[C@@H](CC(N)=O)C(=O)N[C@@H](CO)C(=O)N[C@H](C(=O)N[C@@H](CC(C)C)C(=O)N[C@@H](CO)C(=O)N[C@@H](Cc1ccc(O)cc1)C(=O)N[C@@H](CO)C(=O)O)[C@@H](C)CC)[C@@H](C)CC [SEQ ID NO:15, VAIQNKEEIEYLNSILSYS] (H-VAIQNKEEIEYLNSILSYS-OH) | 22-52% | 71 # of cells |  | ability to upregulate integrins on leukocytes |  | 
7 | CC(C)C[C@H](NC(=O)[C@H](Cc1ccc(O)cc1)NC(=O)[C@H](CCC(=O)O)NC(=O)[C@H](CCC(N)=O)NC(=O)[C@H](CC(C)C)NC(=O)[C@H](CC(=O)O)NC(=O)CNC(=O)[C@H](CO)NC(=O)CNC(=O)[C@H](CC(C)C)NC(=O)[C@H](CCC(=O)O)NC(=O)[C@H](C)NC(=O)[C@@H](NC(=O)[C@@H](NC(=O)[C@H](CC(C)C)NC(=O)[C@H](C)N)[C@@H](C)O)C(C)C)C(=O)O [SEQ ID NO:36, ALTVAELGSGDLQEYL] (H-ALTVAELGSGDLQEYL-OH) |  | 232 # of cells | 80% | ability to upregulate integrins on leukocytes | active | 
8 | CC(C)C[C@H](NC(=O)[C@H](Cc1ccc(O)cc1)NC(=O)[C@@H](NC(=O)[C@H](CCC(N)=O)NC(=O)[C@H](CC(C)C)NC(=O)[C@H](CCC(=O)O)NC(=O)[C@H](C)NC(=O)[C@H](CC(N)=O)NC(=O)CNC(=O)[C@H](CC(C)C)NC(=O)[C@H](CCC(=O)O)NC(=O)[C@H](C)NC(=O)[C@@H](NC(=O)[C@@H](NC(=O)[C@H](CC(C)C)NC(=O)[C@H](C)N)[C@@H](C)O)C(C)C)[C@@H](C)O)C(=O)O [SEQ ID NO:26, ALTVAELGNAELQTYL] (H-ALTVAELGNAELQTYL-OH) |  |  |  | ability to upregulate integrins on leukocytes | active | 
9 | CC[C@H](C)[C@H](NC(=O)[C@H](C)NC(=O)[C@@H](NC(=O)[C@H](CC(C)C)NC(=O)[C@H](CC(=O)O)NC(=O)[C@@H](N)[C@@H](C)O)C(C)C)C(=O)N[C@@H](CCC(N)=O)C(=O)N[C@@H](CC(N)=O)C(=O)N[C@@H](CCCCN)C(=O)N[C@@H](C)C(=O)N[C@@H](CCC(=O)O)C(=O)N[C@H](C(=O)N[C@@H](CCC(=O)O)C(=O)N[C@@H](Cc1ccc(O)cc1)C(=O)N[C@@H](CC(C)C)C(=O)O)[C@@H](C)CC [SEQ ID NO:19, TDLVAIQNKAEIEYL] (H-TDLVAIQNKAEIEYL-OH) |  | 104 # of cells | 80% | ability to upregulate integrins on leukocytes |  | 
10 | CC[C@H](C)[C@H](NC(=O)[C@H](C)NC(=O)[C@@H](N)C(C)C)C(=O)N[C@@H](CCC(N)=O)C(=O)N[C@@H](CC(N)=O)C(=O)N[C@@H](CCCCN)C(=O)N[C@@H](C)C(=O)N[C@@H](CCC(=O)O)C(=O)N[C@H](C(=O)N[C@@H](CCC(=O)O)C(=O)N[C@@H](Cc1ccc(O)cc1)C(=O)N[C@@H](CC(C)C)C(=O)N[C@@H](CCC(=O)O)C(=O)N[C@@H](CCCCN)C(=O)N[C@H](C(=O)N[C@@H](CC(C)C)C(=O)N1CCC[C@H]1C(=O)N[C@@H](Cc1ccccc1)C(=O)N[C@@H](CO)C(=O)O)[C@@H](C)O)[C@@H](C)CC [SEQ ID NO:31, VAIQNKAEIEYLEKTLPFS] (H-VAIQNKAEIEYLEKTLPFS-OH) | 23-31% | 163 # of cells |  | ability to upregulate integrins on leukocytes |  | 
11 | CC(C)C[C@H](NC(=O)[C@H](CC(=O)O)NC(=O)CNC(=O)[C@H](CO)NC(=O)CNC(=O)[C@H](CCCNC(=N)N)NC(=O)[C@H](CC(C)C)NC(=O)[C@H](CCC(=O)O)NC(=O)[C@H](C)NC(=O)[C@@H](N)C(C)C)C(=O)N[C@@H](CCC(N)=O)C(=O)N[C@@H](CCC(=O)O)C(=O)N[C@@H](Cc1ccc(O)cc1)C(=O)N[C@@H](CC(C)C)C(=O)N[C@@H](CCCNC(=N)N)C(=O)N[C@@H](Cc1c[nH]cn1)C(=O)N[C@H](C(=O)N[C@H](C(=O)N[C@@H](CCCNC(=N)N)C(=O)NCC(=O)N[C@@H](Cc1c[nH]c2ccccc12)C(=O)N[C@@H](CO)C(=O)O)[C@@H](C)O)C(C)C [SEQ ID NO:34] | 22-33% | 18 # of cells |  | does not share this property |  | 
12 | S3 with deletion 1: S3 protein from which the VA or YL region of the motif was deleted (TRALTRGNAELQTYLRQITP) |  |  |  |  |  | 16%
